Source: patent publication US20150141381A1, “TETRACYCLINE COMPOUNDS HAVING TARGET THERAPEUTIC ACTIVITIES” (Paratek Pharmaceuticals, Inc., priority 2001, published 2015)
Like-named read-outs stand apart in the source and are kept apart here.

How the values were obtained:
[1] = tested on: S. aureus RN450; assay: In Vitro Anti-Bacterial Activity Assay (MIC), gram positive; format: cell-based; details: Staphylococcus aureus, RN450, 18 h
[2] = tested on: E. coli mL308 225; assay: In Vitro Anti-Bacterial Activity Assay (MIC), gram negative; format: cell-based; details: Escherichia coli, ML308225, 18 h
[3] = MIC class, Table 3 (Continued), read-out: Gram+ activity
[4] = MIC class, Table 3 (Continued), read-out: Gram− activity
[5] = gram positive bacteria, read-out: Antibiotic Activity Gram + (MIC)
[6] = gram negative bacteria, read-out: Antibiotic Activity Gram − (MIC)
[7] = MIC class, Table 3, read-out: Antibiotic Activity Gram +
[8] = MIC class, Table 3, read-out: Antibiotic Activity Gram −

| SMILES | MIC [1, 5] [µg/mL] | MIC [2, 6] [µg/mL] | MIC [1, 7] [µg/mL] | MIC [2, 8] [µg/mL] | other results |
| --- | --- | --- | --- | --- | --- |
| CN(C)[C@@H]1C(O)=C(C(N)=O)C(=O)[C@@]2(O)C(O)=C3C(=O)c4c(O)ccc(C#CC5(O)CCCCC5)c4C[C@H]3C[C@@H]12 | – | – | – | – | MIC [1, 3]: < 4 µg/mL; MIC [2, 4]: < 4 µg/mL |
| CN(C)CCNC(=O)c1cccc(-c2ccc(O)c3c2C[C@H]2C[C@H]4[C@H](N(C)C)C(O)=C(C(N)=O)C(=O)[C@@]4(O)C(O)=C2C3=O)c1 | < 4 | > 4 | – | – | – |
| CN(C)c1ccc(-c2cc(CN)c(O)c3c2C[C@H]2C[C@H]4[C@@H](N(C)C)C(O)=C(C(N)=O)C(=O)[C@@]4(O)C(O)=C2C3=O)cc1 [HQ] | – | – | < 4 | > 4 | – |
| CN(C)[C@@H]1C(O)=C(C(N)=O)C(=O)[C@@]2(O)C(O)=C3C(=O)c4c(O)cccc4[C@@](C)(O)[C@H]3C[C@@H]12 [D] | – | – | < 4 | < 4 | – |
| COc1ccc(-c2ccc(O)c3c2C[C@H]2C[C@H]4[C@H](N(C)C)C(O)=C(C(N)=O)C(=O)[C@@]4(O)C(O)=C2C3=O)cc1CN1CCN(CCO)CC1 [KA] | – | – | < 4 | > 4 | – |
| COC(=O)C(CO)NC(=O)c1cccc(-c2ccc(O)c3c2C[C@H]2C[C@H]4[C@H](N(C)C)C(O)=C(C(N)=O)C(=O)[C@@]4(O)C(O)=C2C3=O)c1 (stereo partly drawn) | < 4 | > 4 | – | – | – |
| CN(C)Cc1ccc(-c2ccc(O)c3c2C[C@H]2C[C@H]4[C@H](N(C)C)C(O)=C(C(N)=O)C(=O)[C@@]4(O)C(O)=C2C3=O)o1 [HL] | – | – | < 4 | < 4 | – |
| C/C(=N/OCC(C)C)c1ccc(O)c2c1C[C@H]1C[C@H]3[C@H](N(C)C)C(O)=C(C(N)=O)C(=O)[C@@]3(O)C(O)=C1C2=O | < 4 | < 4 | – | – | – |
| CN(C)[C@@H]1C(O)=C(C(N)=O)C(=O)[C@@]2(O)C(O)=C3C(=O)c4c(O)c(CNc5ccccc5)cc(I)c4C[C@H]3C[C@@H]12 | < 4 | > 4 | – | – | – |
| CN(C)c1cc(C(=O)N2CCOCC2)c(O)c2c1C[C@H]1C[C@H]3[C@H](N(C)C)C(O)=C(C(N)=O)C(=O)[C@@]3(O)C(O)=C1C2=O | > 4 | > 4 | – | – | – |
| CCOc1ccc(-c2ccc(O)c3c2C[C@H]2C[C@H]4C(N(C)C)C(O)=C(C(N)=O)C(=O)[C@@]4(O)C(O)=C2C3=O)cc1CNC(=O)NC(C)(C)C (stereo partly drawn) [HK] | – | – | < 4 | > 4 | – |
| CC1c2cccc(O)c2C(=O)C2=C(O)[C@]3(O)C(=O)C(C(N)=O)=C(O)[C@@H](N(C)C)[C@@H]3[C@@H](O)[C@@H]21 (stereo partly drawn) | – | – | – | – | MIC [1, 3]: < 4 µg/mL; MIC [2, 4]: > 4 µg/mL |
| CN(C)[C@@H]1C(O)=C(C(N)=O)C(=O)[C@@]2(O)C(O)=C3C(=O)c4c(O)ccc(CNCc5ccccc5)c4C[C@H]3C[C@@H]12 | < 4 | < 4 | – | – | – |
| CN(C)[C@@H]1C(O)=C(C(N)=O)C(=O)[C@@]2(O)C(O)=C3C(=O)c4c(O)ccc(-c5ccc(C#N)cc5)c4C[C@H]3C[C@@H]12 | – | – | – | – | MIC [1, 3]: < 4 µg/mL; MIC [2, 4]: < 4 µg/mL |
| CN(C)CC#Cc1ccc(O)c2c1C[C@H]1C[C@H]3[C@H](N(C)C)C(O)=C(C(N)=O)C(=O)[C@@]3(O)C(O)=C1C2=O [AL] | – | – | < 4 | < 4 | – |
| CCOP(=O)(OCC)C(Nc1ccc2c(c1O)C(=O)C1=C(O)[C@]3(O)C(=O)C(C(N)=O)=C(O)[C@@H](N(C)C)[C@@H]3[C@@H](O)[C@@H]1[C@H]2C)c1ccccc1 (stereo partly drawn) | – | – | – | – | MIC ([1]; read-out: Gram+ activity): < 4 µg/mL; MIC ([2]; read-out: Gram− activity): > 4 µg/mL |
| CCc1cc(N)c(O)c2c1C[C@H]1C[C@H]3[C@H](N(C)C)C(O)=C(C(N)=O)C(=O)[C@@]3(O)C(O)=C1C2=O | < 4 | < 4 | – | – | – |
| CN(C)[C@@H]1C(O)=C(C(N)=O)C(=O)[C@@]2(O)C(O)=C3C(=O)c4c(O)cc(Cl)c(N)c4C[C@H]3C[C@@H]12 | > 4 | > 4 | – | – | – |
| COC(=O)c1cc(N)cc(-c2ccc(O)c3c2C[C@H]2C[C@H]4[C@H](N(C)C)C(O)=C(C(N)=O)C(=O)[C@@]4(O)C(O)=C2C3=O)c1 [HE] | – | – | < 4 | > 4 | – |
| Cc1cc(CNCc2cc(N(C)C)c3c(c2O)C(=O)C2=C(O)[C@]4(O)C(=O)C(C(N)=O)=C(O)[C@@H](N(C)C)[C@@H]4C[C@@H]2C3)oc1C [LC] | – | – | < 4 | < 4 | – |
| Cc1cc(C)cc(/C=C2\c3cccc(O)c3C(=O)C3=C(O)[C@]4(O)C(=O)C(C(N)=O)=C(O)[C@@H](N(C)C)[C@@H]4[C@@H](O)[C@@H]32)c1 | – | – | – | – | MIC [1, 3]: < 4 µg/mL; MIC [2, 4]: < 4 µg/mL |
| CCOCc1cccc(-c2ccc(O)c3c2C[C@H]2C[C@H]4[C@H](N(C)C)C(O)=C(C(N)=O)C(=O)[C@@]4(O)C(O)=C2C3=O)c1 | – | – | – | – | MIC [1, 3]: < 4 µg/mL; MIC [2, 4]: < 4 µg/mL |
| COc1ccc(C#Cc2cc(C#Cc3ccc(OC)cc3)c3c(c2O)C(=O)C2=C(O)[C@]4(O)C(=O)C(C(N)=O)=C(O)[C@@H](N(C)C)[C@@H]4C[C@@H]2C3)cc1 [BS] | – | – | > 4 | > 4 | – |

| SMILES | MIC [1, 5] [µg/mL] | MIC [2, 6] [µg/mL] | MIC [1, 7] [µg/mL] | MIC [2, 8] [µg/mL] | other results |
| --- | --- | --- | --- | --- | --- |
| CN(C)c1cc(CNCc2ccc(C#N)cc2)c(O)c2c1C[C@H]1C[C@H]3[C@H](N(C)C)C(O)=C(C(N)=O)C(=O)[C@@]3(O)C(O)=C1C2=O | < 4 | > 4 | – | – | – |
| CN(C)[C@@H]1C(O)=C(C(N)=O)C(=O)[C@@]2(O)C(O)=C3C(=O)c4c(O)ccc(-c5cccc(NC(=O)c6ccno6)c5)c4C[C@H]3C[C@@H]12 | < 4 | > 4 | – | – | – |
| COc1ccc(CN2CCOCC2)cc1-c1ccc(O)c2c1C[C@H]1C[C@H]3[C@H](N(C)C)C(O)=C(C(N)=O)C(=O)[C@@]3(O)C(O)=C1C2=O [BV] | – | – | < 4 | > 4 | – |
| CCOc1ccc(-c2ccc(O)c3c2C[C@H]2C[C@H]4C(N(C)C)C(O)=C(C(N)=O)C(=O)[C@@]4(O)C(O)=C2C3=O)cc1CNC(=O)C(F)(F)F (stereo partly drawn) [HS] | – | – | < 4 | > 4 | – |
| CCCCOc1cccc2c1C(=O)C1=C(O)[C@]3(O)C(=O)C(C(N)=O)=C(O)[C@@H](N(C)C)[C@@H]3[C@@H](O)[C@@H]1[C@H]2C | > 4 | > 4 | – | – | – |
| CN(C)c1cc(CNCC23CC4CC(CC(C4)C2)C3)c(O)c2c1C[C@H]1C[C@H]3[C@H](N(C)C)C(O)=C(C(N)=O)C(=O)[C@@]3(O)C(O)=C1C2=O | < 4 | < 4 | – | – | – |
| CC(C)CN(Cc1ccc(O)c2c1C[C@H]1C[C@H]3[C@H](N(C)C)C(O)=C(C(N)=O)C(=O)[C@@]3(O)C(O)=C1C2=O)CC(C)C | < 4 | < 4 | – | – | – |
| CN(C)C(=O)c1cccc(-c2ccc(O)c3c2C[C@H]2C[C@H]4[C@H](N(C)C)C(O)=C(C(N)=O)C(=O)[C@@]4(O)C(O)=C2C3=O)c1 [AD] | – | – | < 4 | > 4 | – |
| CN(C)[C@@H]1C(O)=C(C(N)=O)C(=O)[C@@]2(O)C(O)=C3C(=O)c4c(O)ccc(C#Cc5ccc(N(O)O)cc5)c4C[C@H]3C[C@@H]12 | – | – | – | – | MIC [1, 3]: < 4 µg/mL; MIC [2, 4]: < 4 µg/mL |
| COc1cccc(C#Cc2ccc(O)c3c2C[C@H]2C[C@H]4[C@H](N(C)C)C(O)=C(C(N)=O)C(=O)[C@@]4(O)C(O)=C2C3=O)c1 | – | – | – | – | MIC [1, 3]: < 4 µg/mL; MIC [2, 4]: < 4 µg/mL |
| CN(C)c1cc(-c2ccc3c(c2)OCO3)c(O)c2c1C[C@H]1C[C@H]3[C@H](N(C)C)C(O)=C(C(N)=O)C(=O)[C@@]3(O)C(O)=C1C2=O [Y] | – | – | < 4 | > 4 | – |
| CN(C)c1cc(-c2ccc(CN3CCN(CCO)CC3)o2)c(O)c2c1C[C@H]1C[C@H]3[C@H](N(C)C)C(O)=C(C(N)=O)C(=O)[C@@]3(O)C(O)=C1C2=O | < 4 | > 4 | – | – | – |
| COc1ccc(OC(=O)Nc2ccc3c(c2O)C(=O)C2=C(O)[C@]4(O)C(=O)C(C(N)=O)=C(O)[C@@H](N(C)C)[C@@H]4C[C@@H]2C3)cc1 [AS] | – | – | – | – | MIC ([1]; read-out: Antibiotic Activity Gram +): < 4 µg/mL; MIC ([2]; read-out: Antibiotic Activity Gram −): > 4 µg/mL |
| CN(C)c1cc(-c2ccc(Cl)cc2)c(O)c2c1C[C@H]1C[C@H]3[C@H](N(C)C)C(O)=C(C(N)=O)C(=O)[C@@]3(O)C(O)=C1C2=O [AF] | – | – | < 4 | > 4 | – |
| CN(C)c1cc(C=O)c(O)c2c1C[C@H]1C[C@H]3[C@@H](N(C)C)C(O)=C(C(N)=O)C(=O)[C@@]3(O)C(O)=C1C2=O [NM] | – | – | < 4 | < 4 | – |
| C[C@H]1c2ccc(-c3cc4ccccc4s3)c(O)c2C(=O)C2=C(O)[C@]3(O)C(=O)C(C(N)=O)=C(O)[C@@H](N(C)C)[C@@H]3[C@@H](O)[C@@H]21 | < 4 | < 4 | – | – | – |
| CN(C)[C@H]1C(O)=C(C(N)=O)C(=O)[C@@]2(O)C(O)=C3C(=O)c4c(O)ccc(-c5ncccn5)c4C[C@H]3C[C@@H]12 [PX] | – | – | < 4 | > 4 | – |
| CN(C)c1cc(-c2ccoc2)c(O)c2c1C[C@H]1C[C@H]3[C@H](N(C)C)C(O)=C(C(N)=O)C(=O)[C@@]3(O)C(O)=C1C2=O [KU] | – | – | < 4 | > 4 | – |
| CC(C)CNC(=N)Nc1cc(N(C)C)c2c(c1O)C(=O)C1=C(O)[C@]3(O)C(=O)C(C(N)=O)=C(O)[C@@H](N(C)C)[C@@H]3C[C@@H]1C2 [FB] | – | – | > 4 | > 4 | – |
| CONCc1ccc(-c2cc(N(C)C)c3c(c2O)C(=O)C2=C(O)[C@]4(O)C(=O)C(C(N)=O)=C(O)[C@@H](N(C)C)[C@@H]4C[C@@H]2C3)[nH]1 | < 4 | < 4 | – | – | – |
| CN(C)[C@@H]1C(O)=C(C(N)=O)C(=O)[C@@]2(O)C(O)=C3C(=O)c4c(O)ccc(-c5ccc(CNC6CCCCC6)o5)c4C[C@H]3C[C@@H]12 [LK] | – | – | < 4 | < 4 | – |
| C[C@H]1c2c(-c3ccccc3)cc(-c3ccccc3)c(O)c2C(=O)C2=C(O)[C@]3(O)C(=O)C(C(N)=O)=C(O)[C@@H](N(C)C)[C@@H]3[C@@H](O)[C@@H]21 | < 4 | < 4 | – | – | – |
